In patent publication US20090118223A1, “Novel 2'-c-methyl and 4'c-methyl nucleoside derivatives” (priority 2005, published 2009):
Counter-ions that a name gives are not always drawn. Each block holds one molecule with its values, some of them ahead of it.

Assays:
[1] = test system: HCV replication in human liver tissue; assay: HCV-infected human liver slice assay (Example F); type: cell-based; details: for amount of HCV RNA released into the culture medium from 48-72 h: treatment of HCV-infected human liver slices for 72 h
Method: Inhibition of HCV replication in human liver tissue was evaluated using the following assay.
Liver from a brain-dead HCV antibody-positive human patient was perfused with ice-cold Viaspan (Dupont Pharmaceutical) preservation solution and received on ice in Viaspan.
Precision-cut liver slices of 200-250 μm thickness and […] diameter were prepared and cultured in Waymouth's cell culture medium (Gibco, Inc.) that was supplemented with 10% fetal bovine serum and 10 mL/L Fungi-Bact at 37° C., and gassed with carbogen (95% O2, 5% CO2) at 0.75 liters/min. Tissue slices were maintained in culture for 72 h. Cell culture medium containing test compound in solution was changed on a daily basis.
At appropriate times of liver slice incubation, liver slices and medium were collected for analysis of HCV RNA (tissue and medium) and nucleotide levels (NTP). All collected media and tissue slices were maintained in liquid N2 until analysis.
Medium and tissue samples were analyzed for HCV RNA levels according to published procedures (Bonacini et. al., 1999) which utilize an automated, multicycle, polymerase chain reaction (PCR)-based technique. This assay has a lower limit of detection for HCV RNA of 100 viral copies/ml.
Frozen liver slices were disrupted by using a combination of ultrasound probe sonication, Branson Sonifier 450 (Branson Ultrasonics, Danbury, Conn.) and homogenization using a Dounce conical pestle in 200 μls of 10% (v/v) perchloric acid (PCA). After a […] centrifugation at 2,500×g, the supernatants were neutralized using 3 M KOH/3 M KHCO3 and mixed thoroughly. The neutralized samples were centrifuged at 2,500 g for 5 min and NTP levels were determined by ion exchange phase HPLC (Hewlett Packard 1050) using a Whatman Partisil 5 SAX (5 μm, 4.6×250 mm) column. […] Nucleoside triphosphates were eluted from the column using a linear gradient to 80% 1 M ammonium phosphate pH 3.5/6% ethanol buffer, at a flow rate of 1.25 mL/min and detected by UV absorbance (254 nm).

[2] = Liver targeting of 2′-C-methylcytidine and its prodrugs in rats: liver NTP vs plasma nucleoside (Example K); type: in vivo; details: male Sprague-Dawley rats, intraperitoneal, 5 mg/kg nucleoside equivalents
Method: The liver specificity of the prodrug compounds 35.3, 35.4, and 35.5 was compared relative to the parent nucleoside, 2′-C-methylcytidine, by measuring the generation of NTP in the liver compared to nucleoside in the plasma.
Prodrug compounds 35.3, 35.4, 35.5, 38.3, 38.6, 40.1, 40.6, 40.7, 40.8, 41.2 or 2′-C-methylcytidine were administered intraperitoneally to male Sprague-Dawley rats at a dose of 5 mg/kg based on nucleoside equivalents (5 mg/kg 2′-C-methylcytidine and ˜7-10 mg/kg prodrug compounds). Plasma concentrations of 2′-C-methylcytidine and the liver concentrations of the 5′-triphosphate of 2′-C-methylcytidine were measured by LC-MS using the standard ion-pairing chromatography methods for nucleoside and triphospliate, respectively, as described in Example E. Conventional SAX HPLC-UV could not differentiate between endogenous CTP and 2′-C-methylcytidine triphosphate.

Compound: C[C@@]1(O)[C@H](O)[C@@H](COP2(=O)OCC[C@H](c3cccc(Cl)c3)O2)O[C@H]1n1ccc2c(=O)[nH]c(N)nc21 (stereo partly drawn) (as salt: trifluoroacetic acid salt) [Compound 17.10, 2-amino-7-(cis-5′-O-[4-(R)-(3-chlorophenyl)-2-oxo-1,3,2-dioxaphosphorinan-2-yl]-2′-C methyl-beta-D-ribofuranosyl)-7H-pyrrolo[2,3-d]pyrimidin-4(3H)-one trifluoroacetic acid salt]
melting point: 170 to 180 °C

Compound: C[C@@]1(O)[C@H](O)[C@@H](CO[P@]2(=O)OCC[C@H](c3cccc(Cl)c3)O2)O[C@H]1n1cnc2c(=O)[nH]c(N)nc21 (relative stereo) [Compound 19, cis-5′-O-[4-(3-Chlorophenyl)-2-oxo-1,3,2-dioxaphosphorinan-2-yl]-2′-C-methylguanosine]
lowering viral RNA production in the culture medium, prodrug compared with nucleoside 2′-C-methylguanosine ([1]; HCV-infected human liver slices, 72 h): more effective | amount of HCV RNA released into the culture medium from 48-72 h [1]: decreased

Compound: CC(C)[C@H](N)C(=O)O[C@@H]1[C@@H](CO[P@@]2(=O)OCC[C@@H](c3cccc(Cl)c3)O2)O[C@@H](n2ccc(N)nc2=O)[C@]1(C)O.O=C(O)C(F)(F)F (relative stereo) [Compound 41.2, cis-5′-O-[4-(S)-(3-Chlorophenyl)-2-oxo-1,2,3-dioxaphosphorin-2-yl]-2′-C-methyl-3′-(L-valinyl)cytidine trifluoroacetic acid salt]
Liver Targeting Index (Liver/Plasma) [2]: 302 | Cmax ([2]; 2′-C-methylcytidine): 340 nM | Prodrug Improvement (Fold) ([2]; liver targeting over free nucleoside): 4081 Fold

Compound: C[C@@]1(O)[C@H](O)[C@@H](CO)O[C@H]1n1cnc2c(=O)[nH]c(N)nc21 [2′-C-methylguanosine, reference compound]
amount of HCV RNA released into the culture medium from 48-72 h [1]: decreased

Compound: C[C@@]1(O)[C@H](O)[C@@H](COP2(=O)OCC[C@@H](c3ccncc3)O2)O[C@H]1n1ccc2c(=O)[nH]c(N)nc21 (stereo partly drawn) [Compound 17.13, 2-amino-7-(cis-5′-O-[4-(S)-(pyridin-4-yl)-2-oxo-1,3,2-dioxaphosphorinan-2-yl]-2′-C methyl-beta-D-ribofuranosyl)-7H-pyrrolo[2,3-d]pyrimidin-4(3H)-one]
melting point: 138 to 141 °C

Compound: C[C@@]1(O)[C@H](O)[C@@H](COP2(=O)OCC[C@H](c3ccccc3)O2)O[C@H]1n1ccc2c(=O)[nH]c(N)nc21 (stereo partly drawn) [Compound 17.16, 2-amino-7-(cis-5′-O-[4-(R)-phenyl-2-oxo-1,3,2-dioxaphosphorinan-2-yl]-2′-C methyl-beta-D-ribofuranosyl)-7H-pyrrolo[2,3-d]pyrimidin-4(3)-one]
melting point: 128 to 133 °C

Other lines, results leading:

melting point: 182 to 185 °C
Compound: CC(=O)O[C@@H]1[C@@H](CO[P@@]2(=O)OCCC(c3ccncc3)O2)O[C@@H](n2ccc3c(N)ncnc32)[C@]1(C)O (some centres unmarked) [Compound 22.1]

melting point: 90 to 93 °C
Compound: CC(=O)O[C@@H]1[C@@H](CO[P@@]2(=O)OCC[C@@H](c3cccc(Cl)c3)O2)O[C@@H](n2ccc3c(N)ncnc32)[C@]1(C)O [Compound 22.2, 4-amino-7-(3′-O-acetyl-cis-5′-O-[4-(S)-(3-chlorophenyl)-2-oxo-1,3,2-dioxaphosphorinan-2-yl]-2′-C-methyl-beta-D-ribofuranosyl)-7H-pyrrolo[2,3-d]pyrimidine]
